US4417052A, “Phenyl-lower-alkyl piperidines and pyrrolidines” (Sterling Drug Inc., priority 1981, dated 1983)
Counter-ions that a name gives are not always drawn.

Experiments:
[1] = tested on: carrageenin-induced foot edema; test: inhibition of carrageenin-induced foot edema test (C.E.); assay type: in vivo; details: oral; for inhibition in vivo at 20 µmol/kg: dose 0.02 millimoles/kg; for inhibition in vivo at 4 µmol/kg: dose 0.004 millimoles/kg; for C.E. percent inhibition (Table B): formula V amides
Protocol: (§1) Anti-inflammatory activity was determined using (1) the inhibition of carrageenin-induced foot edema test essentially described by Winter et al., Proc. Soc. Exp. Biol. and Med. 111, 554 (1962) as modified by Van Arman et al., J. Pharmacol. Exptl. Therap. 150, 328 (1965) and (2) a modification of the inhibition of adjuvant-induced arthritis test described by Pierson, J. Chronic Diseases 16, 863 (1963) and Glenn et al., Am. J. Vet. Res. 26, 1180 (1965).
(§2) The N-{2-,3- and 4-[R1 -(phenyl)-C(=X)]-phenyl-lower-alkyl}amines of formulas I, Ia and Ib of the invention have been tested in the carrageenin edema (CE) and adjuvant arthritis (AA) tests and found to have anti-inflammatory activity. For comparative purposes, data obtained in the carrageenin edema test on the reference compound (designated "Ref."), 4[(3-benzoylphenyl)methyl]morpholine, disclosed in French Patent 1,549,342, are also given. All data were obtained on oral administration.

[2] = tested on: adjuvant-induced arthritis; test: inhibition of adjuvant-induced arthritis test (A.A.); assay type: in vivo; details: oral; for A.A. percent inhibition (in brackets): corn oil vehicle; for A.A. percent inhibition (in parentheses): second experiment
Protocol: as §1, §2

[3] = dose 0.08 millimoles/kg, read-out: C.E. percent inhibition
[4] = dose 0.324 millimoles/kg, read-out: C.E. percent inhibition
[5] = read-out: C.E. percent inhibition

| SMILES | inhibition in vivo at 80 µmol/kg [1, 3] | inhibition in vivo at 324 µmol/kg [1, 4] | inhibition in vivo at 20 µmol/kg [1, 5] | inhibition in vivo at 4 µmol/kg [1, 5] | also measured |
| --- | --- | --- | --- | --- | --- |
| CN(C)C(c1ccccc1)c1cccc(CCN2CCOCC2)c1 (stereo not drawn) [Example 22, 4-{2-[3-(α-dimethylaminobenzyl)phenyl]ethyl}morpholine] | 29% | 63% | – | – | – |
| NC(c1ccccc1)c1cccc(CCN2CCOCC2)c1 (stereo not drawn) [Example 16A, 4-{2-[3-(α-Aminobenzyl)phenyl]ethyl}morpholine dihydrochloride] | 27% | 39% | – | – | – |
| CC(CN1CCOCC1)c1cccc(C(N)c2ccccc2)c1 (stereo not drawn) [Example 16C, 4-{2-[3-(α-Aminobenzyl)phenyl]propyl}morpholine dihydrochloride] | 49% | 84% | – | – | – |
| CC1CCCC(C)N1CCc1ccc(O)c(C(=O)c2ccccc2)c1 (stereo not drawn) [Example 19, 2,6-dimethyl-1-[2-(3-benzoyl-4-hydroxyphenyl)ethyl]piperidine hydrochloride] | 0% | 23% | 5% | – | inhibition in vivo at 160 µmol/kg ([2]; dose 0.16 millimoles/kg, read-out: A.A. percent inhibition): 1% |
| CC(CN1CCOCC1)c1ccc(C(=O)c2ccccc2)cc1 (stereo not drawn) [Example 24A, 4-[2-(4-benzoylphenyl)propyl]morpholine hydrochloride] | 44% | 56% | – | – | inhibition in vivo at 324 µmol/kg ([2]; dose 0.324 millimoles/kg, read-out: A.A. percent inhibition): 78% |
| CC(CN1CCCCC1CC1CCCCC1)c1cccc(C(O)c2c(Cl)cccc2Cl)c1 (stereo not drawn) [Example 5A, 2-Cyclohexylmethyl-1-{2-[3-(α-hydroxy-2,6-dichlorobenzyl)phenyl]propyl}piperidine] | 58% | 68% | 0% | 0% | – |
| CC(CN1CCC2(CC1)OCCO2)c1cccc(C(=O)c2ccccc2)c1 (stereo not drawn) [7G (base), 8-[2-(3-Benzoylphenyl)propyl]-1,4-dioxa-8-azaspiro[4,5]decane] | – | – | 42% | 33% | inhibition in vivo at 80 µmol/kg ([2]; dose 0.08 millimoles/kg, read-out: A.A. percent inhibition): 76% |
| Cc1cccc(C(=O)c2cccc(C(C)CN3CCCCC3CC3CCCCC3)c2)c1 (stereo not drawn) [Example 9, 2-cyclohexylmethyl-1-{2-[3-(3-methylbenzoyl)phenyl]propyl}piperidine] | 21% | 47% | 0% | 0% | – |
| ON=C(c1ccccc1)c1cccc(CCN2CCOCC2)c1 [Example 15A, 4-[2-(3-Benzoylphenyl)ethyl]morpholine oxime] | 27% | 29% | – | – | – |
| Cc1ccccc1C(=O)c1cccc(C(C)CN2CCCCC2CC2CCCCC2)c1 (stereo not drawn) [Example 8, 2-cyclohexylmethyl-1-{2-[3-(2-methylbenzoyl)phenyl]propyl}piperidine] | 33% | 68% | 21% | 2% | – |
| CC(C(=O)N1CCN(C2CCCC2)CC1)c1cccc(C(=O)c2ccccc2)c1.Cl (stereo not drawn) [Example 1J, 4-Cyclopentyl-1-[α-(3-benzoylphenyl)propionyl]piperazine hydrochloride] | – | – | – | – | C.E. percent inhibition (Table B) ([1]; dose 0.08 millimoles/kg): 18%; C.E. percent inhibition (Table B) ([1]; dose 0.324 millimoles/kg): 72% |
| CN(C)CCCNCCc1cccc(C(=O)c2ccccc2)c1 [Example 1D, N-[2-(3-Benzoylphenyl)ethyl]-N-(3-dimethylaminopropyl)amine dihydrochloride hemi-hydrate] | 36% | 65% | – | – | – |
| C=C(c1ccccc1)c1cccc(C(C)CN2CCCCC2CC2CCCCC2)c1 (stereo not drawn) [Example 17, 2-cyclohexylmethyl-1-{2-[3-(1-phenyl-1-vinyl)phenyl]propyl}piperidine] | 47% | 67% | 16% | 9% | – |
| CC(CN1CCCCC1CC1CCCCC1)c1cccc(C(O)c2cccc(Cl)c2)c1 (stereo not drawn) [Example 3A, 2-Cyclohexylmethyl-1-{2-[3-(α-hydroxy-3-chlorobenzyl)phenyl]propyl}piperidine] | 34% | 75% | 0% | 0% | – |
| Cc1ccc(C(O)c2cccc(C(C)CN3CCCCC3CC3CCCCC3)c2)cc1 (stereo not drawn) [Example 4, 2-cyclohexylmethyl-1-{2-[3-(α-hydroxy-4-methylbenzyl)phenyl]propyl}piperidine] | 18% | 72% | 1% | 0% | – |
| CC1CN(CC(C)c2cccc(C(=O)c3ccccc3)c2)CC(C)O1 (stereo not drawn) [Example 7J, 2,6-Dimethyl-4-[2-(3-benzoylphenyl)propyl]morpholine cyclohexanesulfamate] | 62% | 66% | – | – | – |
| CC(CN1CCCCC1CC1CCCCC1)c1cccc(C(=O)c2cccc(Cl)c2)c1 (stereo not drawn) [Example 20B, 2-Cyclohexylmethyl-1-{2-[3-(3-chlorobenzoyl)phenyl]propyl}piperidine] | 22% | 65% | 0% | 14% | – |
| CC(CN1CCCCC1CCCC1CCCCC1)c1cccc(C(O)c2ccccc2)c1 (stereo not drawn) [Example 3E, 2-(3-Cyclohexylpropyl)-1-{2-[3-(α-hydroxybenzyl)phenyl]propyl}piperidine] | – | – | 34% | 14% | – |
| CC(CN1CCCCC1CC1CCCCC1)c1cccc(C(C)(O)c2ccccc2)c1 (stereo not drawn) [Example 6, 2-cyclohexylmethyl-1-{2-[3-(α-hydroxy-α-methylbenzyl)phenyl]propyl}piperidine] | 28% | 55% | 5% | 14% | – |
| CC(CN1CCCCC1CC1CCCCC1)c1cccc(C(=O)c2ccc(Cl)c(Cl)c2)c1 (stereo not drawn) [Example 20C, 2-Cyclohexylmethyl-1-{2-[3-(3,4-dichlorobenzoyl)phenyl]propyl}piperidine] | 19% | 51% | 15% | 17% | – |
| O=C(c1ccccc1)c1cccc(CN2CCOCC2)c1 [Ref., 4[(3-benzoylphenyl)methyl]morpholine, reference compound] | 0% | 23% | – | – | – |
| CC(c1cccc(C(=O)c2ccccc2)c1)N1CCOCC1 (stereo not drawn) [Example 21, 4-[1-(3-benzoylphenyl)ethyl]morpholine] | 32% | 46% | – | – | – |
| O=C(c1ccccc1)c1cccc(CCN2CCCCC2CC2CCCCC2)c1 (stereo not drawn) [Example 20A, 2-Cyclohexylmethyl-1-[2-(3-benzoylphenyl)ethyl]piperidine] | 46% | 70% | 25% | – | inhibition in vivo at 40 µmol/kg ([1]; dose 0.04 millimoles/kg, read-out: C.E. percent inhibition): 9% |
| CC(CN1CCCCC1CC1CCCCC1)c1cccc(C(C)c2ccccc2)c1 (stereo not drawn) [Example 11, 2-cyclohexylmethyl-1-{2-[3-(α-methylbenzyl)phenyl]propyl}piperidine] | 29% | 64% | 15% | 0% | – |
| O=C(c1ccccc1)c1cccc(CCN2CCOCC2)c1 [Example 1C, 4-[2-(3-Benzoylphenyl)ethyl]morpholine hydrochloride monohydrate] | 40% | 77% | – | – | – |
| OC(c1ccccc1)c1cccc(CCN2CCCCC2CC2CCCCC2)c1 (stereo not drawn) [Example 1A, 2-Cyclohexylmethyl-1-{2-[3-(α-hydroxybenzyl)phenyl]ethyl}piperidine] | 51% | 62% | 0% | 0% | – |
| CC(CN1CCCCC1CC1CCCCC1)c1cccc(C(=O)c2ccccc2)c1.Cl (single isomer, unassigned) [14(a), 2-cyclohexylmethyl-1-[2-(3-benzoylphenyl)propyl]piperidine hydrochloride] | – | – | – | – | A.A. percent inhibition (in brackets) ([2]; dose 0.0013 millimoles/kg): 0%; A.A. percent inhibition (in parentheses) ([2]; dose 0.0013 millimoles/kg): 28%; inhibition in vivo at 1.3 µmol/kg ([2]; dose 0.0013 millimoles/kg, read-out: A.A. percent inhibition): 16%; A.A. percent inhibition (in brackets) ([2]; dose 0.005 millimoles/kg): 39%; A.A. percent inhibition (in parentheses) ([2]; dose 0.005 millimoles/kg): 46%; inhibition in vivo at 5 µmol/kg ([2]; dose 0.005 millimoles/kg, read-out: A.A. percent inhibition): 46%; A.A. percent inhibition (in brackets) ([2]; dose 0.02 millimoles/kg): 65%; A.A. percent inhibition (in parentheses) ([2]; dose 0.02 millimoles/kg): 87%; inhibition in vivo at 20 µmol/kg ([2]; dose 0.02 millimoles/kg, read-out: A.A. percent inhibition): 79% |
| Cc1ccc(C(=O)c2cccc(C(C)CN3CCCCC3CC3CCCCC3)c2)cc1 (stereo not drawn) [Example 7C, 2-Cyclohexylmethyl-1-{2-[3-(4-methylbenzoyl)phenyl]propyl}piperidine] | 58% | 75% | 10% | 0% | – |
